Laboratory results published in patent publication US20250144054A1, “SMALL MOLECULE STAT3 INHIBITOR FOR TREATING TRIPLE NEGATIVE BREAST CANCER” (UNIVERSITY OF MARYLAND, BALTIMORE, priority 2022, published 2025).

Assays:
[1] = test system: STAT3; test: Western blot of P-STAT3 (Y705), STAT3, Cyclin D1, Cleaved Caspase-3 in SUM159 cells; format: cell-based, human; settings: SUM159, overnight, vs DMSO
Experimental: (A) MDA-MB-231, SUM159, and 4T1 cell lines were treated with DMSO or LLL12B overnight and the expression levels of P-STAT3 (Y705), STAT3, Cyclin D1, and Cleaved Caspase-3 were analyzed by Western blot. GAPDH served as a protein loading control. (B) MDA-MB-231 cells were treated with DMSO or C188-9 overnight and the expression levels of P-STAT3 (Y705), STAT3, Cyclin D1, and Cleaved Caspase-3 were analyzed by Western blot. (C) MDA-MB-231, SUM159, and 4T1 cells were seeded in a 96-well plate and treated with DMSO or LLL12B for 5 hours and a Caspase-3/7 Fluorescence Assay Kit was used to detect the activation of caspase-3/7. (D) MDA-MB-231, SUM159, and 4T1 cell lines were treated with DMSO or LLL12B for 8-12 hours, and flow cytometry was performed to analyze annexin V and PI staining. The quantification of apoptotic cells was shown in the right panel. ** P<0.01, *** P<0.001 and ****P<0.0001.
SiRNA and transfection. STAT3 siRNA and Negative Control siRNA (Cell Signaling Technology, Danvers, MA, USA) were used to knock down STAT3 in MDA-MB-231, SUM159, and 4T1 cell lines. Cells were transfected with STAT3 siRNA or Negative Control siRNA using Lipofectamine RNAiMAX (Invitrogen, Carlsbad, CA, USA) according to the manufacturer's instructions. After 72 hours, cell viability was examined by MTT cell viability assay, and the transfection efficiency was examined by western blot.
Western blot. Cells were collected and total protein was extracted using cell lysis buffer (Cell Signaling Technology, Danvers, MA, USA). Protein concentration was determined using the Pierce BCA Protein Assay Kit (Thermo Fisher Scientific, Waltham, MA, USA) according to the manufacturer's instructions. Equal amounts of protein were separated by 10% SDS-PAGE gels and transferred to PVDF membranes. Membranes were blocked in 5% non-fat milk at room temperature and probed with specific antibodies P-STAT3 (Y705), STAT3, Cyclin D1, Cleaved Caspase-3, P-STAT1 (Y701), STAT1, P-ERK, ERK or GAPDH (1:1000, Cell Signaling Technology, Danvers, MA, USA) at 4° C. overnight. […]

[2] = test system: STAT3; settings: human medulloblastoma cells, refs [25,31]; cited from earlier work
[3] = test system: SUM159 cells; test: Wound healing assay, SUM159 cells; format: cell-based, human; settings: SUM159, vs DMSO
Experimental: Wound healing assay. MDA-MB-231, SUM159, and 4T1 cells were seeded in a 6-well plate and cultured until fully confluent. A straight scratch crossing the monolayer was created using a 200 μl pipette tip and images of scratched areas were taken. Next, cells were treated with DMSO or LLL12B. Then, images were taken until the scratch of DMSO-treated cells was closed and the relative migration (%) was calculated.
Given the relevance between cancer cell migration and metastasis, cell migration was evaluated using wound healing assay following LLL12B and Talazoparib treatment.
In FIG. 12, L: LLL12B; T: Talazoparib; L0.5:0.5 μM LLL12B; L0.25:0.25 μM LLL12B; T0.5:0.5 μM Talazoparib; T10: 10 μM Talazoparib. In FIG. 13, L: LLL12B; T: Talazoparib; L0.5:0.5μ M LLL12B; T10: 10μ M Talazoparib; T20: 20μ M Talazoparib. In FIG. 14, L: LLL12B; T: Talazoparib; L0.5:0.5μ M LLL12B; T10: 10μ M Talazoparib; T20: 20μ M Talazoparib.
L: LLL12B; A: Abemaciclib; L0.5:0.5 μM LLL12B; A2.5:2.5 μM Abemaciclib; A1: 1 μM Abemaciclib

[4] = test system: HPAC cells; test: MTT cell viability assay, HPAC cells; format: cell-based, human; settings: 3 days
Experimental: The human pancreatic cancer cell lines HPAC and PANC-1 were seeded and allowed to attach for 24 hours. Then cells were treated with different concentrations of LLL12B for 3 days and the cell viability was determined by MTT cell viability assay.

[5] = test system: SUM159 cells; test: Annexin V and PI flow cytometry, SUM159 cells; format: cell-based, human; settings: SUM159, 8-12 hours, vs DMSO
Experimental: (§1) Flow cytometry analysis. Flow cytometry was performed to detect cell apoptosis. The APC Annexin V Apoptosis Detection Kit (Biolegend, San Diego, CA, USA) was used for Annexin V staining. Cells were seeded in a 35 mm culture dish at a density of 1×10^5 cells/dish. After overnight incubation, cells were treated with DMSO or LLL12B for 8-12 hours. Cells were harvested and stained with Annexin V-APC and propidium iodide (PI) according to the manufacturer's instructions. After staining, cells were counted using a FACSCanto II flow cytometer (BD Biosciences, San Jose, CA, USA).

[6] = test system: P-STAT3 (Y705); test: Immunofluorescence staining of P-STAT3 (Y705) localization in SUM159 cells; format: cell-based, human; settings: 8 hours, vs DMSO
Experimental: (A) The chemical structures of LLL12B and LLL12. The carbamate ester bond of LLL12B is hydrolytically cleaved by the tumor-associated plasmin to release LLL12. (B) SUM159 cells were seeded in a 6-well plate and treated with LLL12B for 8 hours. Cells were stained with Phospho-Stat3 (Tyr705) and DAPI (indicated by arrows). Green: P-STAT3 (Y705); Blue: DAPI. T47D (C) and MDA-MB-231 (D) breast cancer cells were pretreated with DMSO or LLL12B in a serum-free medium for 2 hours and stimulated with 50 ng/ml of IL-6, IFN-γ, or EGF for additional 30 minutes. Cells were collected and analyzed by Western blot. GAPDH served as a protein loading control.
Immunofluorescence staining. SUM159 cells were seeded in a 6-well plate and treated with LLL12B or DMSO for 8 hours. Cells were fixed with 4% paraformaldehyde (PFA) for 15 minutes at room temperature and then permeabilized with ice-cold 100% methanol for 10 minutes at −20° C. After blocking in 3% Bovine Serum Albumin (BSA)/0.1% Triton X-100, cells were incubated with rabbit anti-Phospho-Stat3 (Tyr705) (1:100, Cell Signaling Technology, Danvers, MA, USA) overnight at 4° C., then with secondary antibody for 1 hour at room temperature. Cells were photographed using a Leica fluorescence microscope (Leica Microsystems Inc, Deerfield, IL, USA).

[7] = test system: MDA-MB-231 cells; test: Annexin V and PI flow cytometry, MDA-MB-231 cells; format: cell-based, human; settings: MDA-MB-231, 8-12 hours, vs DMSO
Experimental: as §1

Compound: CN(C)C(=O)Oc1cccc2c1C(=O)c1cccc(S(N)(=O)=O)c1C2=O [LLL12B]
- Cyclin D1 expression [1]: decreased
- expression of Cleaved Caspase-3 [1]: enhanced
- phosphorylation of STAT3 [1]: decreased
- IL-6 induced STAT3 phosphorylation [2]: inhibited
- wound closure (cell migration) [3]: effectively inhibited
- cell viability [4]: significantly inhibits
- percentage of apoptotic cells [5]: significantly increased
- distribution of P-STAT3 (Y705) in the nucleus [6]: blocked
- percentage of apoptotic cells [7]: significantly increased
